Laboratory results from US4080466A, “Pharmaceutical compositions containing 4-hydroxyl-1,3-dithiolan-2-ylidene malonates” (Nihon Nohyaku Co., Ltd., priority 1976, dated 1978).

Experiments:
acute oral toxicity = conditions: mouse, in vivo, male mice
Excerpt: Further, these compounds have no detrimental effects on test animals administered therewith, so far as the doses thereof are within an ordinary administration range.

[1] = tested on: acute liver damage induced by allyl alcohol; test: Protective Effect on Acute Liver Damage associated with Periportal Necrosis (allyl alcohol), BSP test; format: in vivo, mouse (dd-strain); conditions: 100 mg/kg oral, 6 h before allyl alcohol (0.075 mg/kg oral); 24 h
Method: The compund of this invention or anethol trithion was orally administered to the male mouse (4 week-old, dd-strain) at the dose of 100 mg/kg. Six hours after it, allyl alcohol was orally administered at the dose of 0.075 mg/kg. Twenty four hours after it, the animals were sacrificed to collect blood samples.

[2] = tested on: acute hepatitis induced by D-galactosamine; test: Protective Effect on Acute Hepatitis associated with Mesenchymal Reaction and Discrete Lobular Necrosis (D-galactosamine); format: in vivo, rat (SD strain); conditions: 100 mg/kg oral, 6 h before D-galactosamine 600 mg/kg i.p. (+ 300 mg/kg)
Method: D-Galactosamine is a compound which induces a discrete lobular necrosis associated with mesenchymal reaction similar to the change observed in human viral hepatitis, so that it is frequently used in producing a model for viral hepatitis.
The compound of this invention or anethol trithion was administered orally to the male rat (SD strain) at the dose of 100 mg/kg. Six hours after it, D-galactosamine was intraperitoneally administered at the dose of 600 mg/kg. Four hours after it, an additional 300 mg/kg was administered intraperitoneally. Eight hours after it, the animals were sacrificed to collect the blood samples. P-GPT activity and triglyceride in the liver were measured to evaluate the effect of the compound of this invention.

[3] = tested on: fatty liver induced by ethionine; test: Effect on Fatty Liver (ethionine); format: in vivo, mouse (dd-strain); conditions: 250 mg/kg oral, 24 h, 10 animals
Excerpt: But, the fatty liver is grouped into a couple of patterns from the mechanism of lipid accumulation or metabolism of lipoprotein in the liver. Ethionine is a typical example which induces first pattern of fatty liver. It inhibits RNA and protein synthesis and destructs polysome of the liver cell. Fatty liver is induced by inhibition of the protein synthesis and disturbance of lipoprotein secretion.
Usually, fatty liver is closely related to the accumulation of triglyceride in the liver. In the present example, the degree of fatty liver and protective or therapeutic effect against the fatty liver was evaluated by measurement of triglyceride content in the liver. Methods:
The compounds of this invention and methionine were independently dissolved or suspended into olive oil and administered orally to 4 week-old male mouse (dd-strain) at the dose of 250 mg/kg. One hour before it, simultaneously to it, or one hour after it, ethionine dissolved in equimolar NaOH solution was administered intraperitoneally at the dose of 200 mg/kg. Twenty four hours after the administration of ethionine, the animals were sacrificed and triglyceride content in the liver was determined by chromotropic acid method.

glucose metabolism [4] = test: Effect on glucose metabolism; format: in vivo, mice; conditions: 250 mg/kg oral, 6 h before glucose 4.0 g/kg
Method: The test compounds dissolved in olive oil and administered orally at the dose of 250 mg/kg to the mice. After 6 hours, 4.0 g/kg of glucose was orally administered. The same amount of glucose was given to the control animals. 0.02 ml of blood was taken from caudal vein of the mice at 30, 60, 90 and 120 min. after glucose administration. Blood sugar was measured by the procedure of Somogyi-Nelson. Number of animals used was 5 to 6 mice for each treatment.

glucose metabolism [5] = test: Effect on glucose metabolism; format: in vivo, mice; conditions: 250 mg/kg oral, 6 h before glucose 4.0 g/kg; 0 min
[6] = compound 1 hr before ethionine (200 mg/kg i.p.)
[7] = simultaneous with ethionine (0 hr)

Compound: CC(C)OC(=O)C(C(=O)OC(C)C)=C1SCC(O)S1 (stereo not drawn) [Compound 2, Diisopropyl 4-hydroxy-1,3-dithiolan-2-ylidene malonate]
- LD50 (acute oral toxicity): > 6590 mg/kg
- BSP (residual quantity) [1]: 17.1 ± 3.8
- Triglyceride in liver [2]: 7.0 ± 0.82 mg/g
- p-GPT [2]: 73 ± 13 Karmen unit
- Triglyceride ([3]; compound 1 hr after ethionine): 11.8 ± 0.39 mg/g-liver
- Triglyceride [3, 6]: 10.3 ± 0.96 mg/g-liver
- Triglyceride [3, 7]: 6.9 ± 0.38 mg/g-liver
- Blood Sugar (glucose metabolism [4]; 30 min): 247 ± 20.2 mg/dL
- Blood Sugar (glucose metabolism [4]; 60 min): 212 ± 13.1 mg/dL
- Blood Sugar (glucose metabolism [4]; 90 min): 177 ± 15.5 mg/dL
- Blood Sugar (glucose metabolism [4]; 120 min): 130 ± 10.8 mg/dL
- Blood Sugar (glucose metabolism [5]): 136 ± 12.3 mg/dL

Compound: CCOC(=O)C(C(=O)OC(C)C)=C1SCC(O)S1 (stereo not drawn) [Compound 4, Ethyl isopropyl 4-hydroxy-1,3-dithiolan-2-ylidene malonate]
- Triglyceride ([3]; compound 1 hr after ethionine): 12.8 ± 0.92 mg/g-liver
- Triglyceride [3, 6]: 12.0 ± 0.77 mg/g-liver
- Triglyceride [3, 7]: 6.7 ± 0.43 mg/g-liver
